Assay results: patent publication US20200138750A1, “Use of Mustard Seed Oil (Allyl Isothiocyanate) to relieve headache pain” (priority 2018, published 2020)

Test system: users suffering with headaches
Assay: Inhalation of pure AITC vapor through the nostrils by users with headaches
Assay type: in vivo
Protocol: In the present invention AITC is taken in to its purest form. To treat headache instantly, Purest AITC needs to be inhaled deeply for up to 5 seconds in each nostril. If it is taken correctly, due to its pungency and potency, the vapor of AITC will instantly felt inside on the top of the crown of the user's head.
If AITC is inhaled properly and as directed, most users will be out of irritation in less than 2 minutes.
In current studies we have used pure AITC in above mentioned quantity into small dark thick glass vials with aluminum seal and tight screw caps. The bottles are also very small mouth.

C=CCN=C=S [AITC, Allyl isothiocyanate]
time until users are out of irritation after inhalation (AITC inhaled properly and as directed, most users): less than 2 minutes
nasal mucus, sinus pressure and sinus headache (inhalation): relives sinusitis pressure and sinus headaches
addiction or rebound headaches (inhalation remedy): does not lead to addiction or rebound headaches
side effects (inhalation remedy): does not have any side effects
headache relief (inhalation, users with headaches): headache is also relieved
irritation and lachrymal effect on deep inhalation (inhaled deeply): instantly irritated and most likely get tears from eyes
natural versus synthetic AITC in treating headaches (natural (from mustard seeds, horseradish or wasabi) vs synthetic (99.9% pure)): almost same result in treating headaches
time to relief from headache pain (pure AITC inhaled as directed, most users suffering with headaches): relived from pain in seconds in most cases or up to couple of minutes
